Here are results for seven compounds from patent US20110229447A1, “NUTRITIONAL SUPPORT TO PREVENT OR MODERATE BONE MARROW PARALYSIS OR NEUTROPENIA DURING ANTI-CANCER TREATMENT” (priority 2008, published 2011).

For one data set, the system named is NK cell. As to conditions: about 750 mg per day for two weeks; cited from earlier work.
Data set [1] in a line: Example 2: body weight, haematology and flow cytometry of immune cells in tumor-bearing mice on supplemented diets with or without chemotherapy. The data set is classed as in vivo, C57BL/6 (H-2b) mice. As to conditions: for immune cell population / concentration: during the second (tumor-induced) phase; for Global lymphocyte population: following chemotherapy. The procedure:
Mice. […] The animals were distributed into 7 different group diets. There was a control group that received the diet AIN 93 for adult rodents (maintenance). Test diets were administered in doses appropriate to the animal model: (a) Ctrl diet were supplemented with 1% (w/w) L-arginine, (b) 25% of the protein was replaced by glutamine, (c) 1% (w/w) L-citrulline, (d) 1 g/Kg body weight with active hexose correlated compound, (e) 20 mg/day of RNA nucleotides and (f) 25 mg/day of lactoferrin. […] Control animals without chemotherapeutic treatment were run in parallel for all tested diets. Body weight was assessed every two days. Blood samples were obtained at day 2, 4 and 10 after the chemo-treatment and at sacrifice (14 or 28 days). An autopsy was performed and tumor mass was assessed.
Haematological Evaluation.
Flow Cytometric Analysis.
A general note: In flow cytometry, cells or beads pass a laser one at a time.

The nature of data set [2]: Example 1: body weight and haematological toxicity of chemotherapy in tumor-bearing mice.
Method: Mice. Inbred eight-week-old C57BL/6 (H-2b) mice were used in the experiments. Mice were inoculated subcutaneously (s.c.) on the left flank with 1×10^6 tumor cells, and tumor growth was monitored every 2 days by caliper measurement. 6 days after the tumor inoculation the animals were treated either with oxaliplatin or doxorubicin. Tumor growth was monitored every two days after the chemotherapeutic treatment and they were sacrificed after two weeks of tumor implantation. Some experiments were carried out until 28 days post-chemo to better assess tumor growth.
Body weight was assessed every two days until sacrifice.
Blood samples were obtained at day 2 and 4 after the chemo-treatment, at day 10 and at sacrifice (14 or 28 days). An autopsy was performed and tumoral mass was assessed.
Haematological Evaluation. Red blood cell enumeration, hemoglobin and hematocrit were measured at 2, 4, 10, 14 and 28 days.
White blood cell counts and differential leukocyte formulation were examined at the same time points. Blood samples were used in addition to determine immune cell populations.
Flow Cytometric Analysis. Cell subset analysis of the CD11c^+, CD11b^+Gr-1^+ and CD11b^+Gr-1^−, CD14^+, CD19^+, CD16^+, CD56^+, CD3^+, CD8^+, CD4^+ was performed. The battery of antibodies used permitted the evaluation of: B and T cell subsets NK, NKT cells, macrophages, dendritic cells, granulocytes.
In another data set the test system is γδ T cells. The note with it: acid hydrolysed, diluted in media; 5%-75%; cited from earlier work.
In the next data set the test system is MCA-OVA tumor cells. Description: Example 2: tumor growth in mice on supplemented diets with or without chemotherapy. In kind it is in vivo, C57BL/6 (H-2b) mice. The procedure: Mice. […] The animals were distributed into 7 different group diets. There was a control group that received the diet AIN 93 for adult rodents (maintenance). […] Control animals without chemotherapeutic treatment were run in parallel for all tested diets. Body weight was assessed every two days. Blood samples were obtained at day 2, 4 and 10 after the chemo-treatment and at sacrifice (14 or 28 days). An autopsy was performed and tumor mass was assessed.
Cancer Cell Lines. Methylcholanthrene (MCA) induced sarcoma cell line expressing the exogenous antigen ovalbumin (OVA) was grown in DMEM or RPMI 1640 supplemented with 2 mM L-glutamine, 10 mM HEPES, 20 μM 2-mercaptoethanol, 150 U/mL streptomycin, 200 U/mL penicillin, and 10% heat-inactivated FBS. 1×10^6 tumor cells were injected in the flank of the mice 6 days prior to the chemotherapy.
Tumor Growth Evaluation. Growth of tumors was monitored every 2 d by using calipers, and tumor volume was calculated by using the formula length×width×width×0.52 mm^3.

In the case of vitamin E, in the data set on NK cell, the “NK cell cytolytic activity” value is “significantly improved” and the NKG2D expression entry was “small but consistent induction”.
Take lactoferrin: in data set [1] (chemotherapy treated group versus control (FIG. 11)), the “toxicity (bone marrow / blood cells)” value is “less toxicity”. Moreover, in data set [1], the “immune cell population / concentration” value is “increase in their immune cell population” and the Global lymphocyte population entry is “less depressed”. For the same compound, in data set [1] (oxaliplatin treated animals, after day ten), the “leukocytic increase (white blood cell counts)” value is “leukocytic increase tended to be higher”.
Take `O=C1[O][Pt]2([NH][C@@H]3CCCC[C@H]3[NH]2)[O]C1=O` [oxaliplatin]: the Maximal weight loss entry in data set [2] (maximal dose 10 mg/kg, of initial body weight) is reported as “around 15%”; in data set [1] (maximal dose 10 mg/kg), “around 15%”. Moreover, the leukocyte counts entry in data set [2] (recovery starting after 7 days post chemotherapy) is listed as “higher that the baseline counts”.
In the case of `NC(=O)CC[C@H](N)C(=O)O` [glutamine], the Global lymphocyte population result in data set [1] is listed as “less depressed”.
Turning to `CCNC(=O)CC[C@H](N)C(=O)O` [L-theanine], in the data set on γδ T cells, the “expansion of γδ T cells” value is recorded as 15 fold.
Turning to `N=C(N)NCCC[C@H](N)C(=O)O` [arginine, L-arginine], in the data set with MCA-OVA tumor cells (combination with chemotherapy versus chemotherapy alone (FIG. 4)), the tumor size entry was “further reduced the tumor size”. For the same compound, the “progression of the implanted tumor” value in the data set on MCA-OVA tumor cells (compared to other diet groups) is reported as “delayed progression of the implanted tumor”. The “fall of erythrocytes (RBC)” value in data set [1] (between days 6 and 10 post-chemo (FIG. 3)) is listed as “prevented the marked fall of erythrocytes”. Besides, the “immune cell population / concentration” value in data set [1] was “increase immune cell concentration”. Besides, in data set [1] (flow cytometry, around 10 days post chemotherapy), the “loss of CD3+ cells” value is reported as “partially modulated”.
On to `NC(=O)NCCC[C@H](N)C(=O)O` [citrulline, L-citrulline], for which the Global lymphocyte population result in data set [1] is on record as “less depressed”.
